Tested on: U87MG tumors
Experiment: U87MG human glioblastoma xenograft model (Compound 1)
Assay type: in vivo, SCID mice
Conditions: positive control, 4 mg/kg Q3D IP, 18 days
Description: U87MG Human Glioblastoma Xenograft Model (Compound 1). Efficacy Studies: Groups of female SCID mice bearing U87MG tumors (n=8-10/group) were dosed orally with vehicle or Compound 1 throughout the study, starting when tumor volumes reached approximately 200 mm^3. The twice daily (BID) dose groups were dosed with a 10-hour separation between morning and evening doses. In the positive control group, rapamycin was administered Q3D via intraperitoneal (IP) route. At the end of each study, plasma and/or tumor samples were collected.
Cell Line and Culture. U87MG cell line was obtained from American Tissue Culture Collection (ATCC) (Gaithersberg, Md.) and grown in growth medium containing MEM, 2 mM L-glutamine, 0.1 mM non-essential amino acids and 1 mM sodium pyruvate and 10% fetal bovine serum (FBS). The cells were detached from tissue culture flasks using trypsin-EDTA. After centrifugation, the cell pellets were suspended in phosphate buffered saline (PBS) and counted using a hemocytometer. The final volume was adjusted to 5×10^6 cells/0.1 mL of PBS.
Tumor Cell Inoculation. Mice were anesthetized with inhaled isoflurane and then inoculated with U87MG tumor cells subcutaneously on the right hind leg with 0.1 mL of a single cell suspension in PBS using a sterile 1 mL syringe fitted with a 26 gauge needle. Following inoculation, the mice were returned to microisolator cages
Randomization of Animals. Following inoculation, tumors were allowed to grow to about 200 mm^3 prior to randomization. The typical number of days required for tumors to reach 200 mm^3 was 14-15 days. The tumor of each animal was measured and animals with tumors ranging between 175-250 mm^3 were included in the study. Animals from the pool were then distributed randomly into various cages and the cages were randomly assigned to vehicle, positive control, or test article groups. All of the mice were tagged with metal ear tags on the right ear.
Test Article Preparation and Administration. Suspensions of Compound 1 were prepared in aqueous 0.5% CMC and 0.25% Tween-80. The formulations were homogenized using a Teflon™ pestle and mortar (Potter-Elvehjem tissue grinder). Between the doses, the formulated compound was stored under constant stirring using a magnetic stirrer at 4° C. in the dark. The test article and vehicle were administered by oral gavage. The positive control, rapamycin, was prepared as solution in 2% ethanol, 45% polyethyleneglycol 400, and 53% saline and administered by IP injection. Sterile syringes and gavage needles were used for compound administration. All of the procedures including injections were done in biosafety cabinets disinfected with 70% ethanol prior to use.
Tumor Measurements. Tumor volumes were determined prior to the initiation of treatment and were considered as the starting volumes. Thereafter, tumors were measured twice a week for the duration of the study. The long and short axes of each tumor were measured using a digital caliper in millimeters. Tumor volumes were calculated using the formula: width^2×length/2. The tumor volumes were expressed in cubic millimeters (mm^3).
Tumor Growth Delay (TGD) Calculations. Tumor growth delay is the difference in days for treated versus control tumors to reach a volume of 1000 mm^3. The TGD was calculated from the data plotted in a graph format.
Body Weight Measurements. Initial body weights were recorded prior to the initiation of treatment using a digital scale. The percent body weight change during the course of the study was calculated using initial body weight measurements. Body weights of each animal were measured twice a week at the same time as the tumor measurements. Body weights were measured more frequently if significant decreases were noted during the course of the study.

## CO[C@H]1C[C@@H]2CC[C@@H](C)[C@@](O)(O2)C(=O)C(=O)N2CCCC[C@H]2C(=O)O[C@H]([C@H](C)C[C@@H]2CC[C@@H](O)[C@H](OC)C2)CC(=O)[C@H](C)/C=C(\C)[C@@H](O)[C@@H](OC)C(=O)[C@H](C)C[C@H](C)/C=C/C=C/C=C/1C [rapamycin, reference compound]
  change in body weight: No significant change
